Experimental data as given in patent US20160143955A1, “METHOD FOR ISOLATING STROMAL VASCULAR FRACTION” (AGENCY FOR SCIENCE, TECHNOLOGY AND RESEARCH, priority 2013, published 2016).

Tested on: adipose-derived stem cells recovered from fat tissue
Assay: Yield of adipose-derived stem cells (ASCs) after seven days of growth, compared to the collagenase-based method
Format: cell-based
Settings: mince 2.5 mins, incubate with agent at 37° C. for 1 hour; ASCs after seven days of growth vs collagenase-based method
Method: Fat tissue (adipose tissue) obtained as lipoaspirate or resected via surgeries are to be obtained prior conducting any of the methods as described herein. To ensure optimum cell viability, immediate isolation of stromal vascular fraction on the day the sample is obtained is recommended. However, the methods as described herein may be performed optimally within 24 hours of sample being obtained. If the methods of the present disclosure cannot be performed immediately upon harvest of sample or within 72 hours of the sample being obtained, the sample was stored at 4° C. In case of enzymatic digestion, the sample is brought to room temperature before proceeding to the isolation procedure.
Upon obtaining the sample as lipoaspirate, to remove debris, the fat tissue was washed with equal amount of buffer (such as phosphate buffered saline (PBS) or Hank's balanced salt solution (HBSS)). For example, for 50 cc or 50 gram volume of lipoaspirate, 50 ml of buffer was used. Washed sample was allowed to settle for a couple of minutes and fluid from the bottom was aspirated to leave fat layer in the top. Washing steps were repeated two times. Collected fat layer was divided into the different methods as described below.
i) Add an equal volume of collagenase solution (ml per gram or cc of fat pads) into one sterile vial and warm to 37° C. Typically, collagenase solution is composed of 2.5 μg/ml collagenase type I, 1% (wt/vol) Bovine Serum Albumin (BSA), 50 μg/ml D-glucose and 200 nM adenosine in buffer;
i) Place washed fat tissue into appropriate tubes. Add equal volume of HBSS solution. Usually 10 ml of fat is used for each variable for replicate treatment/plating. Resected fat is favorable for consistency of cell yield, but manually harvested lipoaspirates are acceptable though additional optimization work described below is recommended;
When homogenizer is to be used, mildly homogenize fat tissue samples at the lowest level setting for 1 min. As would be apparent to the skilled person in the art, different homogenizers would give very different results. […] Optimization for different type of fat tissues must be conducted to obtain optimized parameters and lengths of homogenizing time;
vi) Centrifuge samples at 450 g (about 1800 RPM) for 5 min to pellet dissociated stromal vascular fraction cells. […] Discard the top layer of floating mature adipocytes;
xii) Re-suspend pellet in buffer (PBS or HBSS; 1 ml per 100 cc original tissue). Sample out 10 μl and count cell number in 1:1 mixture of trypan blue by hemocytometer or automated cell counter.
xv) Plate into appropriate dishes and incubate culture plates in 37° C., 5% CO2 incubator. […]
The isolated stromal vascular fraction cells in the methods described above were analyzed for their qualities and yield of adipose-derived stem cells. […]

Molecule | Yield (percentage yield of adipose-derived stem cells recovered) [%]
CNC[C@H](O)c1ccc(O)c(O)c1 [Epinephrine, epinephrine] | >85
CC(C)NCC(O)c1ccc(O)c(O)c1 (stereo not shown) [Isoprenaline, isoprenaline] | >70
Sodium deoxycholate [Sodium deoxycholate (SOC)] | 0
Triton-X | 0
